Earlier results on two compounds are cited in US20130184245A1, “ENDOMETRIOSIS TREATMENT” (DRUGTECH CORPORATION, priority 2007, published 2013).

Like-named read-outs stand apart in the source and are kept apart here.

In data set [1] the test system is pelvic endometriosis. Conditions: vaginal ring containing 1000 mg danazol.
The subject of data set [2] is deeply infiltrating endometriosis.
In data set [3] the test system is women with endometriosis and chronic pelvic pain symptoms. To be noted: intravaginal danazol therapy, 22 women.
The conditions of data set [4]: intravaginal gel, 100 to 200 mg/day.
Data set [5] relates to pelvic endometriosis.
Data set [6] concerns women with endometriosis. Conditions: intravaginal gel, 100 to 200 mg/day.
The conditions of data set [7]: vaginal suppository 100 mg/day versus per os 400 mg/day.
The conditions of data set [8]: intravaginal danazol therapy.
The test system of another data set is endometriosis. Conditions: daily administration of 5 mg danazol in suppository form.
Assay in data set [9]: not given
This is another data set of the same source.

Data set [10] relates to women with endometriosis.

Regarding `C#C[C@]1(O)CC[C@H]2[C@@H]3CCC4=Cc5oncc5C[C@]4(C)[C@H]3CC[C@@]21C` [danazol, 17α-ethynyl-17β-hydroxy-4-androsteno[2,3-d]-isoxazole], in the data set on pelvic endometriosis [1], the “efficacy in treating pelvic endometriosis” value is “very effective”. Moreover, the “women in whom ovulation and conception occurred” value in [2] (out of 31 infertile women with deeply infiltrating endometriosis, vaginal ring 1500 mg) was 17. The “time to elimination of dysmenorrhea” value in data set [2] (vaginal ring containing 1500 mg danazol) is recorded as not above 3 months. For the same compound, in [3], the “management of chronic pelvic pain secondary to pelvic endometriosis” value is listed as “effective” and the “side effect profile, systemic androgen-like effects” value is “paucity of systemic androgen-like effects”. Besides, in data set [4], the “plasma levels of danazol” value was “low to undetectable”. For the same compound, the “women in whom conception was enabled while the ring was in place” value in the data set on pelvic endometriosis [5] (of 35 infertile women, vaginal ring 2000 to 3500 mg danazol) was 13. Besides, the “effect on dysmenorrhea and pelvic endometriosis” value with pelvic endometriosis [5] (vaginal ring containing 2000 to 3500 mg danazol, 35 infertile women) is “reduced dysmenorrhea and pelvic endometriosis”. Further, in the data set on women with endometriosis [6], the “effect on chronic pelvic pain” value is recorded as “significantly reduced” and the “systemic androgenic side effects” value is “lack of systemic androgenic side effects”. Besides, in [7], the “danazol concentrations in the ovary and uterus, vaginal versus oral administration” value is given as “comparable”; the “serum danazol concentration, vaginal versus oral administration” value is “much lower”. Besides, the “peripheral levels of danazol” value in data set [8] is “undetectable”. In addition, the “effect on dyspareunia and dysmenorrhea” value in the data set on endometriosis is “remission”. The serum danazol concentrations result (oral therapy with danazol at 400 mg/day) is “high”. Moreover, the serum danazol concentrations result (vaginal danazol therapy (ring 1500 mg)) is recorded as “undetectable”. Also, the serum danazol levels result in [9] (danazol 400 mg/day per os) is “exceeded 100 ng/ml”. The serum danazol levels result in data set [9] (topical danazol administration (vaginal ring 1000 mg)) is recorded as “undetectable”.
`C#C[C@]1(O)CC[C@H]2[C@@H]3CCC4=CC(=O)CCC4=C3C=C[C@@]21CC` [gestrinone, ethylnorgestrienone]: the “side effects such as seborrhea, acne and weight gain, versus oral” value in the data set with women with endometriosis [10] (vaginal administration) is on record as “significantly lower”. Besides, in the data set with women with endometriosis [10] (vaginal route, women with endometriosis), the “effectiveness in reducing dyspareunia and dysmenorrhea versus oral gestrinone therapy” value is reported as “equally effective”.
